Assay results from the NIST ThermoML archive (doi:10.1016/j.jct.2018.02.014).

Key:
[1] = 101.33 kPa, Liquid; for viscosity: Falling or rolling sphere viscometry; for mass density: Vibrating tube method
[2] = activity coefficient (dimensionless); of the first substance listed, at infinite dilution; xn = mol fraction of the nth substance listed; conditions: 101.33 kPa, Liquid, Chromatography, x1 = 0

CC[N+]1(C)CCOCC1.N#CN=C=[N-] [N-ethyl-N-methylmorpholinium dicyanamide]
[1]
Conditions | mass density [kg/m3] | viscosity [mPa·s]
298.15 K | 1123.2 | 176
303.15 K | 1120.2 | –
308.15 K | 1117.2 | 106
313.15 K | 1114.2 | –
318.15 K | 1111.3 | 68.3
323.15 K | 1108.4 | –
328.15 K | 1105.4 | 47.4
333.15 K | 1102.5 | –
338.15 K | 1099.7 | 33.7
343.15 K | 1096.8 | –
348.15 K | 1093.9 | 24.8
353.15 K | 1091.1 | –
358.15 K | 1088.3 | 19.2
363.15 K | 1085.5 | –
368.15 K | 1082.7 | 15.6

CC1CCCCC1 [methylcyclohexane] + CC[N+]1(C)CCOCC1.N#CN=C=[N-]
[2]
Conditions | activity coefficient
318.15 K | 288
328.15 K | 263
338.15 K | 242
348.15 K | 224
358.15 K | 208
368.15 K | 194

CCCCCCCCC [nonane] + CC[N+]1(C)CCOCC1.N#CN=C=[N-]
[2]
Conditions | activity coefficient
318.15 K | 1540
328.15 K | 1350
338.15 K | 1190
348.15 K | 1050
358.15 K | 945
368.15 K | 850

C=CCCCCCC [oct-1-ene] + CC[N+]1(C)CCOCC1.N#CN=C=[N-]
[2]
Conditions | activity coefficient
318.15 K | 496
328.15 K | 445
338.15 K | 402
348.15 K | 364
358.15 K | 333
368.15 K | 307

CCCCCCCC [octane] + CC[N+]1(C)CCOCC1.N#CN=C=[N-]
[2]
Conditions | activity coefficient
318.15 K | 1130
328.15 K | 1010
338.15 K | 903
348.15 K | 814
358.15 K | 737
368.15 K | 672

CCCCCO [pentan-1-ol] + CC[N+]1(C)CCOCC1.N#CN=C=[N-]
[2]
Conditions | activity coefficient
318.15 K | 4.78
328.15 K | 4.7
338.15 K | 4.63
348.15 K | 4.56
358.15 K | 4.49
368.15 K | 4.43

CCCC(C)=O [pentan-2-one] + CC[N+]1(C)CCOCC1.N#CN=C=[N-]
[2]
Conditions | activity coefficient
318.15 K | 5.08
328.15 K | 5.26
338.15 K | 5.45
348.15 K | 5.63
358.15 K | 5.81
368.15 K | 5.98

CCC(=O)CC [pentan-3-one] + CC[N+]1(C)CCOCC1.N#CN=C=[N-]
[2]
Conditions | activity coefficient
318.15 K | 5.23
328.15 K | 5.44
338.15 K | 5.64
348.15 K | 5.84
358.15 K | 6.03
368.15 K | 6.23

CCCO [propan-1-ol] + CC[N+]1(C)CCOCC1.N#CN=C=[N-]
[2]
Conditions | activity coefficient
318.15 K | 1.85
328.15 K | 1.85
338.15 K | 1.84
348.15 K | 1.84
358.15 K | 1.84
368.15 K | 1.83

CC(C)O [propan-2-ol] + CC[N+]1(C)CCOCC1.N#CN=C=[N-]
[2]
Conditions | activity coefficient
318.15 K | 2.02
328.15 K | 2
338.15 K | 1.99
348.15 K | 1.97
358.15 K | 1.96
368.15 K | 1.95

CCCc1ccccc1 [propylbenzene] + CC[N+]1(C)CCOCC1.N#CN=C=[N-]
[2]
Conditions | activity coefficient
318.15 K | 29.2
328.15 K | 29.1
338.15 K | 29.1
348.15 K | 29.1
358.15 K | 29.2
368.15 K | 29.2

c1ccncc1 [pyridine] + CC[N+]1(C)CCOCC1.N#CN=C=[N-]
[2]
Conditions | activity coefficient
318.15 K | 1.74
328.15 K | 1.81
338.15 K | 1.88
348.15 K | 1.96
358.15 K | 2.03
368.15 K | 2.1

C=Cc1ccccc1 [styrene] + CC[N+]1(C)CCOCC1.N#CN=C=[N-]
[2]
Conditions | activity coefficient
318.15 K | 6.38
328.15 K | 6.59
338.15 K | 6.81
348.15 K | 7.01
358.15 K | 7.22
368.15 K | 7.43

C1CCOC1 [tetrahydrofuran] + CC[N+]1(C)CCOCC1.N#CN=C=[N-]
[2]
Conditions | activity coefficient
318.15 K | 3.3
328.15 K | 3.44
338.15 K | 3.57
348.15 K | 3.7
358.15 K | 3.82
368.15 K | 3.95

c1ccsc1 [thiophene] + CC[N+]1(C)CCOCC1.N#CN=C=[N-]
[2]
Conditions | activity coefficient
318.15 K | 2.24
328.15 K | 2.36
338.15 K | 2.48
348.15 K | 2.59
358.15 K | 2.71
368.15 K | 2.82

Cc1ccccc1 [toluene] + CC[N+]1(C)CCOCC1.N#CN=C=[N-]
[2]
Conditions | activity coefficient
318.15 K | 7.87
328.15 K | 8.1
338.15 K | 8.33
348.15 K | 8.56
358.15 K | 8.77
368.15 K | 8.99

C=COC(C)=O [vinyl acetate] + CC[N+]1(C)CCOCC1.N#CN=C=[N-]
[2]
Conditions | activity coefficient
318.15 K | 4.22
328.15 K | 4.41
338.15 K | 4.6
348.15 K | 4.78
358.15 K | 4.97
368.15 K | 5.15

O [water] + CC[N+]1(C)CCOCC1.N#CN=C=[N-]
[2]
Conditions | activity coefficient
318.15 K | 0.324
328.15 K | 0.337
338.15 K | 0.35
348.15 K | 0.364
358.15 K | 0.376
368.15 K | 0.39
